{"source": "patent US20250312360A1", "about": "“MITOCHONDRIAL ANTIOXIDANT TREATMENT FOR CASK-LINKED NEURODEVELOPMENTAL DISORDERS” (Virginia Tech Intellectual Properties, Inc., priority 2022, published 2025)", "key": {"[1]": {"test_system": "CASK^floxed; Calb2-cre mice", "assay": "Cerebellar atrophy/degeneration after CASK deletion in cerebellum, images of cerebellum with SkQ1 treatment", "assay_type": "in vivo", "from_the_text": "(§1) FIG. 5A-5B.-Blocking mitochondrial ROS protects cerebellum from degenerating in absence of CASK. […] Cerebellum undergoes atrophy after P30. […] (FIG. 5B) Cerebellum undergoes atrophy in CASK^floxed; Calb2-cre mice leading to locomotor incoordination. The data represents latency time to fall in an accelerating rotarod experiment on P70. CASK^floxed. […] Data represents mean and SEM from n=3. * indicates p≤ 0.05.\nWith no evidence for a defect in neuronal development and biochemical evidence for mitochondrial ROS mediated neuronal death, Applicant next decided to determine if CASK loss results in the degeneration of formed neurons. In the human brain without CASK, Applicant observed astrogliosis as well as microgliosis, both hallmarks of neuronal damage and neuronal loss (Patel, Hegert et al., 2022). In the setting of a human brain without CASK, the presumptive neuronal loss occurs during the early development of the cerebellum, making it hard to further interpret the results. […]"}, "[2]": {"test_system": "CASK^floxed; Calb2-cre mice", "assay": "Accelerating rotarod experiment (locomotor coordination/balance)", "assay_type": "in vivo", "conditions": "P70, n=3, p≤0.05, untreated mice cannot balance on rotarod, FIG. 5B", "from_the_text": "as §1"}}, "note": "“Also recorded” adds a separate entry of the source.", "data": [{"smiles": "CC1=C(C)C(=O)C(CCCCCCCCCC[P+](c2ccccc2)(c2ccccc2)c2ccccc2)=CC1=O", "note": "[SkQ1, 10-(6′-Plastoquinonyl)decyltriphenylphosphonium]", "values": [{"measurement": "cerebellar atrophy (images of cerebellum)", "setting": "[1]; CASK^floxed, untreated cerebellum atrophies after P30 (P30 vs P100 images), FIG. 5A right panel SkQ1-treated", "result": "rescue of cerebellar atrophy"}, {"measurement": "cerebellar degeneration / neurodegeneration caused by CASK deletion", "setting": "[1]; CASKfloxed, summary statement on FIG. 5A-5B", "result": "can halt CASK-linked cerebellar degeneration; also recorded: effectively inhibits neurodegeneration resulting from CASK-loss"}, {"measurement": "latency time to fall in accelerating rotarod experiment (balance)", "setting": "[2]", "result": "balance is completely rescued"}]}]}
